Measurements published in ChEMBL document CHEMBL4007499, “Anti-influenza triterpenoid saponins (saikosaponins) from the roots of Bupleurum marginatum var. stenophyllum” (Bioorg Med Chem Lett, 2017).

Tests used:
[1] = Cytotoxicity against human 293T cells expressing Gluc assessed as inhibition of cell proliferation at 20 uM after 24 hrs by CCK8 assay relative to control; format: cell-based; settings: 293T (HEK-293T) cells expressing Gluc
in vitro = settings: human, 293T cells expressing Gluc
Description: Selectivity index, ratio of CC50 for human 293T cells expressing Gluc to EC50 for Influenza A virus WSN/33(H1N1)

[2] = Cytotoxicity against human 293T cells expressing Gluc assessed as inhibition of cell proliferation after 24 hrs by CCK8 assay; format: cell-based; settings: 293T (HEK-293T) cells expressing Gluc
cells = settings: Influenza A virus, HEK-293T
Description: Antiviral activity against Influenza virus A/WSN/33(H1N1) infected in human 293T cells assessed as inhibition of viral replication preincubated for 2 hrs followed by viral infection measured after 24 hrs by luciferase reporter gene assay

SMILES	inhibition at 24 h, 20 µM [1]	selectivity ratio (in vitro)	CC50 at 24 h [2]	EC50 (cells)
C[C@H]1O[C@@H](O[C@H]2CC[C@@]3(C)[C@@H](CC[C@]4(C)[C@@H]3C=CC3=C5CC(C)(C)CC[C@]5(CO)C(=O)C[C@]34C)[C@]2(C)CO)[C@H](O)[C@@H](O[C@@H]2O[C@H](CO)[C@@H](O)[C@H](O)[C@H]2O)[C@H]1O	9%	–	–	–
C[C@H]1O[C@@H](O[C@H]2CC[C@]3(C)[C@H]4C=C[C@]56OC[C@@]7(CCC(C)(C)C[C@H]75)[C@@H](O)C[C@@]6(C)[C@]4(C)CC[C@H]3C2(C)C)[C@H](O)[C@@H](O[C@@H]2O[C@H](CO)[C@@H](O)[C@H](O)[C@H]2O)[C@H]1O	44.8%	1.33	2.85 µM	2.14 µM
C[C@H]1O[C@@H](O[C@H]2CC[C@@]3(C)[C@@H](CC[C@]4(C)[C@@H]3C=CC3=C5CC(C)(C)CC[C@]5(CO)[C@@H](O)C[C@]34C)[C@]2(C)CO)[C@H](O)[C@@H](O)[C@H]1O	0%	2.89	24.5 µM	8.48 µM
C[C@H]1O[C@@H](O[C@H]2CC[C@@]3(C)[C@@H](CC[C@]4(C)[C@@H]3C=C[C@]35OC[C@@]6(CCC(C)(C)C[C@H]63)C(=O)C[C@]54C)[C@]2(C)CO)[C@H](O)[C@@H](O[C@@H]2O[C@H](CO)[C@@H](O)[C@H](O)[C@H]2O)[C@H]1O	49.7%	1.43	3.8 µM	2.66 µM
CO[C@@H]1C=C2[C@@H]3CC(C)(C)CC[C@]3(CO)[C@@H](O)C[C@@]2(C)[C@]2(C)CC[C@H]3C(C)(C)[C@@H](O[C@@H]4O[C@H](CO[C@@H]5O[C@H](CO)[C@@H](O)[C@H](O)[C@H]5O)[C@@H](O[C@@H]5O[C@@H](C)[C@H](O)[C@@H](O)[C@H]5O)[C@H](O)[C@H]4O)CC[C@]3(C)[C@@H]12	0%	–	–	–
C[C@@H]1O[C@@H](O[C@H]2[C@H](O)[C@@H](O)[C@H](O[C@H]3CC[C@@]4(C)[C@@H](CC[C@]5(C)[C@@H]4C=CC4=C6CC(C)(C)CC[C@]6(CO)[C@@H](O)[C@H](O)[C@]45C)[C@]3(C)CO)O[C@@H]2CO[C@@H]2O[C@H](CO)[C@@H](O)[C@H](O)[C@H]2O)[C@H](O)[C@H](O)[C@H]1O	0%	> 26.1	> 200 µM	7.67 µM
C[C@H]1O[C@@H](O[C@H]2CC[C@@]3(C)[C@@H](CC[C@]4(C)[C@@H]3C=CC3=C5CC(C)(C)CC[C@]5(CO)C(=O)[C@H](O)[C@]34C)[C@]2(C)CO)[C@H](O)[C@@H](O[C@@H]2O[C@H](CO)[C@@H](O)[C@H](O)[C@H]2O)[C@H]1O	0%	–	–	–
C[C@@H]1O[C@@H](O[C@H]2[C@H](O)[C@@H](O)[C@H](O[C@H]3CC[C@]4(C)[C@H]5C=CC6=C7CC(C)(C)CC[C@]7(CO)[C@@H](O)[C@H](O)[C@@]6(C)[C@]5(C)CC[C@H]4C3(C)C)O[C@@H]2CO[C@@H]2O[C@H](CO)[C@@H](O)[C@H](O)[C@H]2O)[C@H](O)[C@H](O)[C@H]1O	5.14%	> 19.8	> 200 µM	10.1 µM
C/C=C/C(=O)OC[C@H]1O[C@@H](O[C@H]2[C@@H](O)[C@@H](C)O[C@@H](O[C@H]3CC[C@@]4(C)[C@@H](CC[C@]5(C)[C@@H]4C=C[C@]46OC[C@@]7(CCC(C)(C)C[C@H]74)[C@@H](O)C[C@]65C)[C@]3(C)CO)[C@@H]2O)[C@H](O)[C@@H](O)[C@@H]1O	44.2%	0.79	7.02 µM	8.92 µM
C[C@H]1O[C@@H](O[C@H]2CC[C@@]3(C)[C@@H](CC[C@]4(C)[C@@H]3C=CC3=C5C[C@@](C)(CO)CC[C@]5(CO)[C@@H](O)C[C@]34C)[C@]2(C)CO)[C@H](O)[C@@H](O[C@@H]2O[C@H](CO)[C@@H](O)[C@H](O)[C@H]2O)[C@H]1O	5.87%	–	–	–
C[C@H]1O[C@@H](O[C@H]2CC[C@]3(C)C4=CC=C5[C@@H]6CC(C)(C)CC[C@]6(CO)[C@H](O)C[C@@]5(C)[C@]4(C)CC[C@H]3[C@]2(C)CO)[C@H](O)[C@@H](O[C@@H]2O[C@H](CO)[C@@H](O)[C@H](O)[C@H]2O)[C@H]1O	1.39%	1.75	38.2 µM	21.8 µM
C[C@@H]1O[C@@H](O[C@H]2[C@H](O)[C@@H](O)[C@H](O[C@H]3CC[C@@]4(C)[C@@H](CC[C@]5(C)[C@@H]4CC=C4[C@@H]6CC(C)(C)CC[C@]6(CO)[C@@H](O)C[C@]45C)[C@]3(C)CO)O[C@@H]2CO[C@@H]2O[C@H](CO)[C@@H](O)[C@H](O)[C@H]2O)[C@H](O)[C@H](O)[C@H]1O	0%	> 11.2	> 200 µM	17.9 µM
C[C@H]1O[C@@H](O[C@H]2CC[C@]3(C)C4=CC=C5[C@@H]6CC(C)(C)CC[C@]6(CO)[C@@H](O)C[C@@]5(C)[C@]4(C)CC[C@H]3[C@]2(C)CO)[C@H](O)[C@@H](O[C@@H]2O[C@H](CO)[C@@H](O)[C@H](O)[C@H]2O)[C@H]1O	1.39%	1.19	18.9 µM	15.8 µM
CO[C@@H]1C=C2[C@@H]3CC(C)(C)CCC3=C(O)C(=O)[C@@]2(C)[C@]2(C)CC[C@H]3[C@](C)(CO)[C@@H](O[C@@H]4O[C@H](C)[C@H](O)[C@H](O[C@@H]5O[C@H](CO)[C@@H](O)[C@H](O)[C@H]5O)[C@H]4O)CC[C@]3(C)[C@@H]12	0%	–	–	–
NC(=O)c1ncn([C@@H]2O[C@H](CO)[C@@H](O)[C@H]2O)n1 [RIBAVIRIN]	0%	> 11.4	> 205 µM	17.9 µM
